In patent publication US20080027098A1, “Derivatives of alpha-phenylthiocarboxylic and alpha-phenyloxy-carboxylic acids useful for the treatment of diseases responding to PPARalpha activation” (SIGMA-TAU INDUSTRIE FARMACEUTICHE RIUNITE S.p.A., priority 2002, published 2008):
Marks after values point to notes of the source that are not given here.

Key:
[1] = test system: db/db mice; assay: Increase in HDL-cholesterol levels in db/db mice; format: in vivo; conditions: for Increase in HDL-cholesterol levels (%): further experiment, oral twice daily 14 days, dose equimolar to 25 mg/kg of ST2195, 8 hours after last treatment
Description: Increase in HDL-Cholesterol Levels in db/db Mice
In this experiment db/db mice were used in which PPARα expression is above normal (Memon et al., Endocrinology 2000, 4021-4031) and HDL-cholesterol levels are substantially elevated (Silver et al., J Biol Chem 1999, 274: 4140-4146).
The C57BL[KsJ db/db mice were acclimatised for one week in standard conditions (22±2° C.; 55±15% humidity; 15-20 air changes/hour; 12 hours light/darkness cycle with light from 7.00 a.m. to 7 p.m.) with a standard 4 RF21 diet (Mucedola). Blood samples were taken in post-absorption conditions (fasting from 8.30 a.m. to 4.30 p.m.) from the caudal vein with the aid of a Jelco 22G catheter (Johnson and Johnson). Glucose, insulin, triglyceride, cholesterol, free fatty acid and urea levels were checked in plasma for a homogeneous distribution of the mice in the treatment groups.
At the beginning of treatment the animals' body weight was checked and arrangements were made to monitor their water and feed consumption. […]
The compound tested, obtained as described in example 4 (ST 1929) was administered at the dose of 24 mg/kg in 10 ml/kg of vehicle (1% CMC containing Tween 80 0.5% in deionized H2O).
The other compounds tested were also administered at a dose equivalent to that in example 4.
Ciprofibrate, a known PPARα agonist (Varanasi et al., J Biol Chem 1996, 271: 2147-2155; Latruffe et al. Cell Biochem Biophys 2000, 32 Spring: 213-220) was administered at the dose of 20 mg/kg (Dwivedi et al., Toxicol Pathol 1989, 17: 16-26; Qi et al., Proc Natl Acad Sci USA 1999, 96: 1585-1590).
The animals were sacrificed (by decapitation) in conditions of post-absorption (fasting from 9.30 a.m. to 4.30 p.m.) 7 hours after the last treatment. The levels of a number of important lipid and carbohydrate metabolism parameters were determined in the serum.
The HDL-cholesterol levels were measured by treating the serum with phosphotungstic-acid-based precipitating reagent (ABX Diagnostics) which removes the chylomicrons, very low density and low density lipoproteins and determining the HDL-cholesterol levels in the supernatant with the aid of the Cholesterol Kit (ABX Diagnostics) and the Cobas Mira S Autoanalyzer (Roche).
In a further experiment, where the above reported ST2195 was used as reference compound, db/db mice were treated orally twice daily (8.30 a.m. and 6.30 p.m.) for 14 days with the test items (equimolar to 25 mg/kg of ST2 195) giving the following results reported in Table 3: […]

[2] = biological target: T1, Gal4DBD/PPARαLBD (Homo sapiens, UniProt Q07869); assay: Transient transfection of COS-7 cells, Gal4DBD/PPARαLBD transactivation, CAT reporter (II method); format: cell-based; conditions: for activation at 2 µM / activation at 20 µM / activation at 100 µM: read-out: percentage activation of the CAT reporter gene compared to reference compound WY-14.643 2 μM taken as 100%
T1 construct: expressed in transfected cells; host or cells: COS-7 (monkey kidney fibroblasts)
T1 sequence (Q07869 239-466 limits assumed): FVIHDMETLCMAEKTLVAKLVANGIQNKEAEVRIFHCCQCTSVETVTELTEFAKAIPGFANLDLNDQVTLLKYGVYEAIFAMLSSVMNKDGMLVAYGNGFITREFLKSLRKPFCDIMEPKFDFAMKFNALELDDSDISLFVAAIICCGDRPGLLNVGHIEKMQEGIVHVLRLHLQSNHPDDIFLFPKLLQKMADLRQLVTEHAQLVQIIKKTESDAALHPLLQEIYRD
Excerpt: Transient Transfection of Eukaryotic Cells to Evaluate the Agonist Activity of PPARα Ligands (II Method)
An alternative transactivation system, which differs mainly in the way the receptor is positioned onto the DNA, and depending on how the event of ligand binding is translated into transcriptional activation, was used.
In this model eukaryotic cells were transiently transfected with an expression vector encoding a fusion protein between the DNA binding domain (DBD) of the yeast Gal4 transcription factor and the ligand binding domain (LBD) of the PPARα (Gal4DBD/PPARαLBD). The reporter vector containing 5 copies of the high affinity binding site for Gal4 (named UAS, upstream activating sequence) upstream of a strong viral promoter linked to the reporter gene chloramphenicol acetyltransferase (CAT), was co-transfected. This model offered some advantages, the most important of which was the absence of interference by endogenous receptors.
Besides expression and reporter vectors, cells were transfected with a control vector pCH110 that encodes the β-galactosidase enzyme to correct for differences in transfection efficiency.
A monkey kidney fibroblast cell line (COS-7) was used. Cells were co-transfected with the plasmid carrying the gene-reporter, the expression plasmid encoding the fusion protein Gal4DBD/PPARαLBD, and the control vector pCH110. Cells were then treated with increasing concentrations of test compounds and the CAT activity was measured. Untreated cells were used as control.
Monkey kidney fibroblasts (COS-7) were routinely grown in DMEM (Dulbecco's modified Eagle's medium) supplemented with 3.7 g/l sodium bicarbonate, 4 mM L-glutamine, 4.5 g/l glucose, 1 mM sodium piruvate and 10% v/v foetal bovine serum, in the presence of streptomycin 100 μg/ml and penicillin 100 U/ml.
COS-7 cells were transiently transfected by using the multi-component lipid-based FuGENE6 Transfection Reagent that complexes with and transports DNA into the cells during transfection. Cells were seeded at 1.2×10^5 cells/well, in 12-well plates, and cultured overnight at 37° C. in a 5% v/v carbon dioxide atmosphere. Two hours before transfection the culture medium was replaced by fresh serum-free medium and then transfection was performed with FuGENE6 Transfection Reagent according to the instructions of the manufacturer. Briefly, the transfection mixture containing (for each well) 0.8 μg of the expression vector, 1.6 μg of the reporter vector, 0.8 μg of the control vector and 9 μl of FuGENE6 Transfection Reagent was added directly to the cells in the presence of serum-free medium. After 5 hours the transfection medium was replaced by 1 ml of the complete culture medium with or without the test molecules at 3 different concentrations (2, 20 and 100 μM). 2 μM Wy-14,643, a known PPARα ligand, was used as positive control.
After 48 h, the cells were washed twice with 1 ml phosphate buffer (PBS) and then harvested by scraping them in TEN buffer (Tris [hydroxymethyl] aminomethane 10 mM pH 8, ethylenediamine tetraacetic acid 1 mM, pH 8, sodium chloride 0.1 M). Following centrifugation at room temperature, for 3 min at 1000 revs per minute (rpm), cells were resuspended with 60 μl of Lysis buffer (0.25M Tris-HCl, pH 8) and lysed by three rapid freeze/thaw cycles (three 5-minute cycles). Cell debris was then removed by centrifugating at 4° C., for 15 min at 15.000 revs per minute (rpm),. Glycerol (final 10% v/v) and β-mercaptoethanol (final 5 mM) were then added (final volume 75 μl) and the cell extracts were stored at −80° C. until assayed.
The CAT activity assay was performed as follows: 20 μl of cell lysate (pre-warmed at 65° C. for 10 min to deactivate internal deacetylase enzymatic activity) were added to 10 μl of 3.5 mg/ml n-butirryl-CoA, 5 μl ([…]) of [14C]-chloramphenicol and 65 μl of distilled H20 and incubated 2 h at 37° C. Reaction was blocked by adding 200 μl of the solution xylene/2,6,10,14 tetramethyl-pentadecane (in a 1:2 v/v mixture). […]

Structure (SMILES)	melting point	activation at 2 µM ([2]; 2 μM)	activation at 20 µM ([2]; 20 μM)	activation at 100 µM ([2]; 100 μM)	other results
COC(=O)C(C)(C)Sc1cccc(OC(=O)Nc2ccc(C(F)(F)F)cc2)c1	66 to 67 °C	–	–	–	–
CC(C)(Oc1ccc(CCNC(=O)c2ccc(Cl)cc2)cc1)C(=O)O [Bezafibrate, reference compound]	–	–	–	–	Increase in HDL/cholesterol levels (%) ([1]; 24.8 mg/kg, 25 days): +14%
CC(C)(Oc1ccc(C2CC2(Cl)Cl)cc1)C(=O)O (stereo not shown) [Ciprofibrate, reference compound]	–	–	–	–	Increase in HDL/cholesterol levels (%) ([1]; oral twice daily, 20 mg/kg, 14 days): +52 ▴ %
COC(=O)C(C)(C)Sc1ccc(O)cc1 [ST1923, methyl 2-(4-hydroxyphenylthio)isobutyrate]	110 to 112 °C	–	–	–	–
COC(=O)C(C)(C)Sc1ccc(OCCc2ccc(Cl)cc2)cc1 [ST1929]	–	–	–	–	Increase in HDL/cholesterol levels (%) ([1]; oral twice daily, 24 mg/kg, 10 days): +80 ▴ %
CC(C)(Sc1ccc(O)cc1)C(=O)O [ST1981, 2-(4-hydroxyphenylthio)isobutyric acid]	152 to 154 °C	–	–	–	–
COC(=O)C(C)(C)Sc1ccc(OCCn2ccc3ccccc32)cc1 [ST1983]	–	–	–	–	percentage activation of the CAT reporter gene compared to reference compound WY-14.643 2 μM taken as 100% ([2]; 2 μM): 150%; percentage activation of the CAT reporter gene compared to reference compound WY-14.643 2 μM taken as 100% ([2]; 20 μM): 391.2%; percentage activation of the CAT reporter gene compared to reference compound WY-14.643 2 μM taken as 100% ([2]; 100 μM): 1372%; Increase in HDL-cholesterol levels (%) [1]: +69Δ %
COC(=O)C(C)(C)Sc1ccc(OCCc2ccc3ccccc3c2)cc1 [ST2011, methyl 2-[4-[2-(2-naphthyl)ethoxy]phenyl-thio]isobutyrate]	56 to 57 °C	–	–	–	–
COC(=O)C(C)(C)Sc1cccc(OCCc2ccc3ccccc3c2)c1 [ST2167, methyl 2-[3-[2-(2-naphthyl)ethoxy]phenyl-thio]isobutyrate]	–	98.1%	360%	463%	Increase in HDL/cholesterol levels (%) ([1]; 26.1 mg/kg, 25 days): +29ρ %
COC(=O)C(C)(C)Sc1cccc(OCCc2ccc(Cl)cc2)c1 [ST2195, methyl 2-[3-[2-(4-chlorophenyl)ethoxy]phenyl-thio]isobutyrate]	–	–	–	–	Increase in HDL/cholesterol levels (%) ([1]; 25.0 mg/kg, 25 days): +20ρ %; Increase in HDL-cholesterol levels (%) [1]: +67Δ %
COC(=O)C(C)(C)Sc1ccc(OCCn2c3ccccc3c3ccccc32)cc1 [ST2387, methyl 2-[4-(2-(carbazol-9-yl)ethoxy)phenyl-thio]isobutyrate]	72 to 74 °C	–	–	–	–
COC(=O)C(C)(C)Sc1cccc(OCCc2ccc(Cl)cc2Cl)c1 [ST2534, methyl 2-[3-(2-(2,4-dichloro-phenyl)ethoxy)phenylthio]isobutyrate]	–	113%	285%	421%	Increase in HDL-cholesterol levels (%) [1]: +61Δ %
COC(=O)C(C)(C)Sc1ccc(OCCn2ccc3cc(OC)ccc32)cc1 [ST2577, methyl 2-[4-[2-(1-(5-methoxy)indolyl)ethoxy]phenyl-thio]isobutyrate]	–	98.6%	269%	255%	–
CC(C)(Sc1ccc(OCCn2ccc3ccccc32)cc1)C(=O)O [ST2622, 2-[4-[2-(1-indolyl)ethoxy]phenyl-thio]-isobutyric acid]	–	105%	231%	311%	Increase in HDL-cholesterol levels (%) [1]: +54Δ %
CC(C)(Sc1cccc(OCCc2ccc(Cl)cc2Cl)c1)C(=O)O [ST2653, 2-[3-(2-(2,4-dichlorophenyl)ethoxy)phenyl-thio]-2-isobutyric acid]	–	132%	199%	204%	–
COc1ccc2c(ccn2CCOc2ccc(SC(C)(C)C(=O)O)cc2)c1 [ST2733, 2-[4-[2-(1-(5-methoxy)indolyl)ethoxy]phenyl-thio]isobutyric acid]	–	77.2%	193%	239%	Increase in HDL/cholesterol levels (%) ([1]; second experiment, 26.4 mg/kg, 16 days): +70[…] %

The next lines start with results.

melting point	activation at 2 µM ([2]; 2 μM)	activation at 20 µM ([2]; 20 μM)	activation at 100 µM ([2]; 100 μM)	Structure (SMILES)	other results
110 to 111 °C	–	–	–	COC(=O)C(C)(C)Sc1ccc(OC(=O)Nc2ccc(C(F)(F)F)cc2)cc1	–
41.5 to 42.5 °C	–	–	–	COC(=O)C(C)(C)Sc1cccc(O)c1 [ST2047, methyl 2-(3-hydroxyphenylthio)isobutyrate]	–
101 to 103 °C	–	–	–	COC(=O)C(C)(C)Sc1cccc(OCCn2c3ccccc3c3ccccc32)c1 [ST2365, methyl 2-[3-(2-(carbazol-9-yl)ethoxy)phenyl-thio]isobutyrate]	–
73 to 74 °C	–	–	–	COC(=O)C(C)(C)Sc1ccc(OCCc2ccc(Cl)cc2Cl)cc1 [ST2531, methyl 2-[4-(2-(2,4-dichloro-phenyl)ethoxy)phenylthio]isobutyrate]	–
–	139%	291%	249%	COC(=O)C(C)(C)Sc1ccc(OCCn2ccc3cc(OCc4ccccc4)ccc32)cc1 [ST2562, methyl 2-[4-[2-(1-(5-benzyloxy)indolyl)ethoxy]phenyl-thio]isobutyrate]	–
–	150%	177%	115%	CC(C)(Sc1ccc(OCCn2ccc3cc(OCc4ccccc4)ccc32)cc1)C(=O)O [ST2740, 2-[4-[2-(1-(5-benzyloxy)indolyl)ethoxy]phenyl-thio]isobutyric acid]	–
